Data on one compound can be found in patent US5932227A, “Percutaneously administrable base composition and drug composition prepared therefrom” (Hisamitsu Pharmaceutical Co., Inc., priority 1992, dated 1999).

The nature of the data set: concentration in blood of tulobuterol upon administering to a rat, compared with oral administration. The class given is in vivo. Particulars: oral 10 mg/kg.

With `CC(C)(C)NCC(O)c1ccccc1Cl` (centres unmarked) [tulobuterol], the AUC (blood) is 91000 ng·h/mL. The bioavailability (blood) was 5.37%. The “concentration in blood of tulobuterol” value by setting is: (0.25 hr) 227.0; (0.5 hr) 37.7; (1 hr) 17.1; (2 hr) 4.3; (4 hr) 0.8; (6 hr) 0 ng/mL. In addition, the concentration in blood of tulobuterol by setting is: (8 hr) 0 ng/mL; (12 hr) 0 ng/mL; (24 hr) 0 ng/mL.

One may read the AUC as concentration integrated over time. The low end stands for less exposure, the high end for more exposure. Broadly, the bioavailability is dose-corrected exposure relative to a reference, in per cent.
